Experimental data published in article PMC9490041, “Determinants of affinity, specificity, and phase separation in a supramodule from Post-synaptic density protein 95” (iScience, 2022).
Like-named read-outs stand apart in the source and are kept apart here. Ends that are not written are not given here.

Columns and labels:
Experiment in all cases: FP displacement (competition) of FITC-15 AA CRIPT by library peptide, IC50 and Ki
[1] = target: PSG (PSD-95); details: for IC50: read-out: IC50 (µM), PSG
[2] = target: PSG G322A (PSD-95); details: for IC50: read-out: IC50 (µM), PSG G322A; for Ki: read-out: Ki (µM), PSG G322A
[3] = target: PSG G335A (PSD-95); details: for IC50: read-out: IC50 (µM), PSG G335A; for Ki: read-out: Ki (µM), PSG G335A
[4] = target: PSG G322A G335A (PSD-95); details: for IC50: read-out: IC50 (µM), PSG G322A G335A; for Ki: read-out: Ki (µM), PSG G322A G335A
[5] = FP displacement of FITC-15 AA CRIPT probe by acetylated PSD library peptide
[6] = read-out: Ki (µM), PSG, FP displacement of FITC-15 AA CRIPT probe by acetylated PSD library peptide
[7] = FP displacement of FITC-15 AA CRIPT probe by acetylated PSD library peptide (P-13 to P0 plus extra N-terminal Y)
[8] = FP displacement of FITC-15 AA CRIPT probe by PSD library peptide, protein PSG (wild type)
[9] = read-out: Ki (µM), PSG, FP displacement of FITC-15 AA CRIPT probe by PSD library peptide, protein PSG (wild type)
[10] = FP displacement of FITC-15 AA CRIPT probe by PSD library peptide, protein PSG G322A
[11] = FP displacement of FITC-15 AA CRIPT probe by PSD library peptide, protein PSG G335A
[12] = FP displacement of FITC-15 AA CRIPT probe by PSD library peptide, protein PSG G322A G335A

Molecule	IC50 [1, 5] [µM]	Ki [1, 6] [µM]	IC50 [2, 5] [µM]	Ki [2, 5] [µM]	IC50 [3, 5] [µM]	Ki [3, 5] [µM]	IC50 [4, 7] [µM]	Ki [4, 5] [µM]	Ki ([1]; FP displacement of 5 nM FITC-15 AA CRIPT by non-labeled acetylated peptide, room temperature, Ki from IC50, technical triplicates, PSG) [µM]	IC50 [1, 8] [µM]	Ki [1, 9] [µM]	IC50 [2, 10] [µM]	Ki [2, 10] [µM]	IC50 [3, 11] [µM]	IC50 [4, 12] [µM]	Ki [3, 11] [µM]	Ki [4, 12] [µM]
CC(=O)N[C@@H](Cc1ccc(O)cc1)C(=O)N[C@@H](CC(C)C)C(=O)N1CCC[C@H]1C(=O)N[C@@H](CC(C)C)C(=O)N[C@@H](CC(=O)O)C(=O)N[C@H](C(=O)N[C@@H](CCC(N)=O)C(=O)N[C@@H](CCC(=O)O)C(=O)NCC(=O)N[C@@H](CC(=O)O)C(=O)N[C@@H](Cc1ccccc1)C(=O)N[C@@H](CCC(N)=O)C(=O)N[C@H](C(=O)N[C@@H](CCC(=O)O)C(=O)N[C@H](C(=O)O)C(C)C)[C@@H](C)O)C(C)C [AGRB3]	1080	459	342	148	1130	402	534	185	–	–	–	–	–	–	–	–	–
CSCC[C@H](NC(=O)[C@H](CCC(N)=O)NC(=O)[C@H](CC(=O)O)NC(=O)[C@H](Cc1ccc(O)cc1)NC(=O)[C@H](CC(=O)O)NC(=O)[C@@H]1CCCN1C(=O)[C@H](CO)NC(=O)[C@H](CCCCN)NC(=O)[C@H](CC(C)C)NC(=O)[C@H](Cc1ccc(O)cc1)NC(C)=O)C(=O)N[C@@H](CO)C(=O)N[C@@H](CO)C(=O)N[C@@H](CO)C(=O)N1CCC[C@H]1C(=O)N[C@@H](CS)C(=O)O [CCG5]	1410	600	2060	894	2540	907	2450	847	–	–	–	–	–	–	–	–	–
CSCC[C@H](NC(=O)[C@H](CO)NC(=O)[C@H](Cc1ccc(O)cc1)NC(=O)[C@H](CC(C)C)NC(=O)[C@H](Cc1ccc(O)cc1)NC(=O)[C@H](Cc1ccc(O)cc1)NC(=O)[C@H](Cc1ccccc1)NC(=O)[C@H](Cc1ccc(O)cc1)NC(C)=O)C(=O)N[C@H](C(=O)N[C@@H](Cc1ccc(O)cc1)C(=O)N[C@H](C(=O)N[C@@H](CC(C)C)C(=O)N[C@H](C(=O)N[C@@H](CO)C(=O)N[C@@H](Cc1ccccc1)C(=O)O)C(C)C)[C@@H](C)O)C(C)C [CNIH2]	2080	888	2260	982	516	184	727	252	–	–	–	–	–	–	–	–	–
CC(=O)N[C@@H](Cc1ccc(O)cc1)C(=O)N[C@@H](CCCCN)C(=O)N[C@@H](CCCCN)C(=O)N[C@H](C(=O)N[C@@H](CC(C)C)C(=O)N[C@@H](CC(=O)O)C(=O)N[C@H](C(=O)N[C@@H](CCCCN)C(=O)N[C@@H](CC(N)=O)C(=O)N[C@@H](Cc1ccc(O)cc1)C(=O)N[C@@H](CCCCN)C(=O)N[C@@H](CCC(N)=O)C(=O)N[C@H](C(=O)N[C@@H](CO)C(=O)N[C@H](C(=O)O)C(C)C)[C@@H](C)O)[C@@H](C)O)C(C)C [CRIPT]	–	–	–	–	–	–	–	–	< 75	6	2.44	1.49	0.496	2	0.868	–	–
CC[C@H](C)[C@H](NC(=O)[C@H](Cc1ccc(O)cc1)NC(=O)[C@H](CO)NC(=O)CNC(=O)[C@H](CO)NC(=O)[C@H](CCC(N)=O)NC(=O)[C@H](Cc1ccc(O)cc1)NC(C)=O)C(=O)N[C@@H](Cc1c[nH]c2ccccc12)C(=O)N[C@H](C(=O)N1CCC[C@H]1C(=O)N[C@@H](C)C(=O)N[C@@H](CCCCN)C(=O)N[C@@H](CCC(=O)O)C(=O)N[C@@H](CCCCN)C(=O)N[C@@H](CC(C)C)C(=O)O)C(C)C [DLG1]	1470	628	1600	692	1310	466	1590	550	–	–	–	–	–	–	–	–	–
CC(=O)N[C@@H](Cc1ccc(O)cc1)C(=O)N[C@@H](CC(=O)O)C(=O)N[C@@H](CO)C(=O)N[C@H](C(=O)N[C@@H](CCC(=O)O)C(=O)N[C@@H](CCC(N)=O)C(=O)N[C@@H](CO)C(=O)N[C@@H](CC(=O)O)C(=O)N[C@H](C(=O)N[C@@H](CCCNC(=N)N)C(=O)N[C@@H](Cc1ccccc1)C(=O)N[C@@H](CO)C(=O)N[C@@H](CO)C(=O)N[C@@H](C)C(=O)N[C@H](C(=O)O)C(C)C)C(C)C)[C@@H](C)O [GPER1]	–	–	–	–	–	–	–	–	–	865	456	190	82	499	238	178	82
CC(=O)N[C@@H](Cc1ccc(O)cc1)C(=O)N[C@H](C(=O)N[C@@H](CCC(=O)O)C(=O)N[C@@H](CO)C(=O)N[C@@H](CCCCN)C(=O)N[C@@H](CCCCN)C(=O)N[C@@H](Cc1c[nH]cn1)C(=O)NCC(=O)N[C@@H](CCCNC(=N)N)C(=O)N[C@@H](Cc1c[nH]c2ccccc12)C(=O)N[C@@H](CCCCN)C(=O)N[C@@H](CC(C)C)C(=O)N[C@@H](Cc1c[nH]c2ccccc12)C(=O)N[C@@H](Cc1ccccc1)C(=O)N[C@@H](CC(C)C)C(=O)O)[C@@H](C)O [INSY2]	380	161	83	36	1230	438	980	339	–	–	–	–	–	–	–	–	–
CC[C@H](C)[C@H](NC(=O)[C@H](CC(N)=O)NC(=O)CNC(=O)CNC(=O)[C@H](CO)NC(=O)[C@H](Cc1ccc(O)cc1)NC(=O)[C@H](CCC(=O)O)NC(=O)[C@@H]1CCCN1C(=O)[C@H](Cc1ccc(O)cc1)NC(C)=O)C(=O)N[C@H](C(=O)N[C@@H](CCCNC(=N)N)C(=O)N[C@H](C(=O)N[C@@H](CO)C(=O)N[C@@H](C)C(=O)N[C@@H](CC(C)C)C(=O)O)C(C)C)C(C)C [KCND2]	–	–	–	–	–	–	–	–	–	1500	793	564	244	237	343	84	119
CC[C@H](C)[C@H](NC(=O)[C@H](CCC(=O)O)NC(=O)[C@@H](NC(=O)[C@H](CO)NC(=O)[C@H](CCC(=O)O)NC(=O)[C@@H](NC(=O)[C@H](CCCNC(=N)N)NC(=O)[C@H](CCC(=O)O)NC(=O)[C@H](CC(C)C)NC(=O)[C@H](CCCNC(=N)N)NC(=O)[C@H](CO)NC(=O)[C@@H]1CCCN1C(=O)[C@@H](NC(=O)[C@H](Cc1c[nH]c2ccccc12)NC(=O)[C@H](Cc1ccc(O)cc1)NC(C)=O)[C@@H](C)O)[C@@H](C)CC)[C@@H](C)O)C(=O)O [LZTS3]	–	–	–	–	–	–	–	–	–	2120	902	462	200	630	662	224	229
CC(=O)N[C@@H](Cc1ccc(O)cc1)C(=O)N[C@@H](Cc1c[nH]cn1)C(=O)N[C@@H](Cc1c[nH]cn1)C(=O)N[C@H](C(=O)N[C@@H](CO)C(=O)N[C@@H](Cc1ccc(O)cc1)C(=O)N[C@H](C(=O)N[C@@H](C)C(=O)N[C@@H](CO)C(=O)N[C@@H](CCCCN)C(=O)N[C@H](C(=O)N[C@@H](CCC(=O)O)C(=O)N[C@H](C(=O)N[C@H](C(=O)N[C@H](C(=O)O)C(C)C)[C@@H](C)O)C(C)C)[C@@H](C)O)[C@@H](C)O)[C@@H](C)O [SHSA6]	–	–	–	–	–	–	–	–	–	1220	518	2000	867	–	1170	–	405
CC[C@H](C)[C@H](NC(=O)[C@H](CC(C)C)NC(=O)[C@H](C)NC(=O)[C@@H](NC(=O)[C@H](C)NC(=O)[C@H](Cc1ccc(O)cc1)NC(C)=O)C(C)C)C(=O)N[C@@H](C)C(=O)N[C@@H](Cc1ccc(O)cc1)C(=O)N[C@@H](CC(C)C)C(=O)N[C@@H](CO)C(=O)N[C@@H](CCCCN)C(=O)N[C@@H](CC(N)=O)C(=O)N[C@@H](CC(N)=O)C(=O)N[C@@H](Cc1c[nH]cn1)C(=O)N[C@@H](CC(C)C)C(=O)O [SYNG1]	1440	613	–	–	663	236	733	254	–	–	–	–	–	–	–	–	–
Ac-YDKPLSKKHAHSVNF [PDLI5]	2060	879	–	–	2060	736	973	337	–	–	–	–	–	–	–	–	–
Ac-YSRQHSKLLDFDDVL [NSMF]	1390	592	–	–	–	–	–	–	–	–	–	–	–	–	–	–	–
